Positions of bridges follow the written chain, without caps; N, C: chain ends. Residues, ends and D or L forms follow the SMILES beside them. Chains are numbered I, II in the order given.
Key:
[1] = test system: reduced glutathione in intraperitoneal macrophages; assay: Reduced glutathione in intraperitoneal macrophages of NOD mice by ACAS (Example 22); type: in vivo; conditions: doses given per substance
[2] = test system: peritoneal exudate cells (macrophages); assay: Induction of oxidative or reductive macrophages by administration, monochlorobimane/ACAS (Example 9); type: in vivo, DBA/2 mice; conditions: intraperitoneally 20 μg/0.5 ml/h each, twice a week for three weeks, 9-11 weeks of age
Description: This was clarified by harvesting peritoneal exudate cells 20 hours after the completion of the administration, adhering the cells to the plastic surface, then reacting the cells with 10 μM of monochlorobimane at 37° C. for 30 minutes, and analyzing the reaction product with ACAS. The increase in the amounts of oxidative macrophages can easily be determined visually from the fact that almost no reaction product with monochlorobimane is observed, namely, a gray or blue image is provided, and the increase in the amounts of reductive macrophages from the fact that a red or yellow image is provided respectively. […] Meanwhile, the same examination was conducted by harvesting peritoneal exudate cells after 20 hours of the administration of 2 mg of N-acetylcystine (NAC).

[3] = test system: macrophage-like cells from tissues of rheumatoid arthritis patients; assay: Intracellular GSH by ACAS in macrophage-like cells from tissues of rheumatoid arthritis patients (Example 17); type: cell-based, human; conditions: 3 hours; for induction of oxidative macrophage with the reduced amount of intracellular glutathione: added at 2 μM; for relative ratio of oxidative macrophages (reduced amount of intracellular glutathione) compared with saline-added group: added at 2 mM
Description: Synovial tissue was aseptically sampled from tissues resected during joint surgery. The sampled synovial tissue was rinsed in phosphate buffer, from which the surface was peeled off in a petri dish containing the same phosphate buffer. Then, the resulting synovial tissue was cut into pieces with a pair of scissors. To the pieces were added 2% hyaluronidase (manufactured by Sigma), 0.2% DNase (derived from bovine pancreas) and 5% collagenase, for enzymatic treatment at 37° C. for 2 hours. After discarding the resulting debris, a cell fraction recovered by centrifugation was adjusted to 5×10^5 cells/ml in a phenol red-free DMEM culture medium supplemented with 10% FCS (manufactured by Nikken Biology Co.). For 3 hours, the cells were allowed to adhere to the plastic surface. Plastic surface adherent macrophage-like cells harvested with a rubber policeman were then subjected to rinsing in combination with centrifugation three times using the culture medium under ice cooling. The resulting cells were designated as synovial tissue-derived macrophages and were then subjected to the following experiments.
By the same manner as in Example 3, macrophage-like cells were collected from tissues of rheumatoid arthritis patients, and were then suspended and adjusted in a phenol red-free RPMI 1640 culture medium supplemented with 10% fetal calf serum to 3×10^6 cells/ml. The suspension was divided in 100-μl portions on Lab-Tek Chamber Slide (#136439; manufactured by NUNC, CO.), for culturing in 5% CO2 at 37° C. for 3 hours; after discarding the nonadherent cells, the 200-μl serum-free culture medium further containing any of the following chemical agents was fed to the resulting culture, for reaction for 3 hours; and then, the resulting culture was rinsed three times, followed by addition of the serum-free culture medium of 200 μl and addition of monochlorobimane to a final concentration of 10 μM, for reaction for 30 minutes. The amount of intracellular GSH was assayed by imaging analysis with an ACAS system (manufactured by Meridian Co.).

[4] = test system: adjuvant-induced arthritis; assay: Adjuvant-induced arthritis (AA) in rats, joint swelling (Examples 18 and 19); type: in vivo, Lewis rats; conditions: Table 4
Description: Adjuvant-induced arthritis was triggered in Lewis rats in a conventional manner; and the effects of chemical agents were examined in the animals. Adjuvant-induced arthritis is well known as an experimental arthritis inducible in rats [Taurog et al., Meth. Enzymol. 162, 339-355 (1988)]. […] An adjuvant is administered at 1 mg/0.1 ml per rate at a site of caudal root. The edema reaches its peak about 2 to 3 weeks after the administration of the adjuvant. The edema is triggered by inflammatory infiltration of monocytes. Swollen joints are measured with a micrometer every day; comparing the diameters of the joints prior to and after adjuvant administration and after initiation of the treatment with chemical agents with the diameters of the joints in the control group, the effects of the chemical agents were expressed as the ratio in % of joint swelling in the experimental groups to joint swelling in the control group. The effects were determined on day 15 after adjuvant administration. The chemical agents were given, starting the day next to the day of adjuvant administration, and every 3 days thereafter.
A single dose is 1 mg/kg for (NAC)2 and (NAC-OMe)2; 100 mg/kg for NAC; and 0.1 mg/kg for lentinan.
Adjuvant-induced arthritis was induced in Lewis rats in a conventional manner. In the same manner as in Example 11, the effects of chemical agents were examined in these rats. The conditions were the same as described above.

[5] = test system: spontaneous onset of insulin-dependent diabetes mellitus; assay: Onset of diabetes mellitus in NOD mice dosed at age 9 to 11 weeks (Example 25); type: in vivo; conditions: nine times
Text: NOD mice purchased from Nippon Clair, Co. were naturally mated together. Among the off spring mice, a colony of NOD mice with a high frequency of the spontaneous onset of insulin-dependent diabetes mellitus was established. Female NOD mice from the colony were used for the present experiment. Chemical agents were orally or intraperitoneally administered to the NOD mice aged 9 to 11 weeks three times per week, in total nine times; and based on the test results of urine glucose, positive or negative, the onset of diabetes mellitus was followed once per week. Urine glucose was detected, using Uropaper (BM Test Glucose 5000, manufactured by Yamanouchi Pharmaceuticals, Co. Ltd.). The onset was judged on week 22; the doses were the same as in Example 24.

[6] = test system: spontaneous onset of insulin-dependent diabetes mellitus; assay: Onset of diabetes mellitus in NOD mice dosed at age 3 to 6 and 9 to 11 weeks (Example 24); type: in vivo; conditions: doses as in the table line, 15 times in total, judged on week 22, saline 60
Text: NOD mice purchased from Nippon Clair, Co. were naturally mated together. Among the off spring mice, a colony of NOD mice with a high frequency of the spontaneous onset of insulin-dependent diabetes mellitus was established. Female NOD mice from the colony were used for the present experiment. […] Urine glucose was detected, using Uropaper (BM Test Glucose 5000, manufactured by Yamanouchi Pharmaceuticals, Co. Ltd.). The onset was judged on week 22.

[7] = test system: insulin-non-dependent diabetes mellitus; assay: Blood sugar level in db/db mice (Example 26); type: in vivo; conditions: intraperitoneal, age 4 to 9 weeks, three times per week; at satiation; saline 100
Text: db/db mice purchased from Nippon Clair, Co. were naturally mated together. Among the off spring mice, a colony of db/db mice with a high frequency of the spontaneous onset of insulin-non-dependent diabetes mellitus was established. Male db/db mice from the colony were used for the present experiment. Chemical agents were intraperitoneally administered to the db/db mice aged 4 to 9 weeks three times per week, in total 18 times; and based on the level of blood sugar in the mice at satiation, the effects of the chemical agents on the improvement of the diseased conditions of insulin-non-dependent diabetes mellitus were followed once per week. The doses were the same as in Example 24.

[8] = intraperitoneal dosing on alternate days from age 3-4 weeks
[9] = oral dosing on alternate days from age 3-4 weeks
[10] = intraperitoneal, judged on week 22, doses as in Example 24, saline 67

Row | Compound | relative ratio of oxidative macrophages compared with saline-dosed NOD mice [1, 8] | induction of oxidative macrophages on ACAS [2] | induction of oxidative macrophage with the reduced amount of intracellular glutathione [3] | relative ratio of oxidative macrophages (reduced amount of intracellular glutathione) compared with saline-added group [3] | relative ratio of oxidative macrophages compared with saline-dosed NOD mice [1, 9] | other results
1 | O=C(O)CCCC[C@@H]1CCSS1 (racemic) [lipoic acid] | same action is also observed |  |  |  |  | 
2 | CC(=O)N[C@@H](CSSC[C@H](NC(C)=O)C(=O)OC(C)C)C(=O)OC(C)C [(NAC-OiPr)2, N,N′-diacetylcystine diisopropyl ester] |  | induction of oxidative macrophages was confirmed | confirmed |  |  | 
3 | COC(=O)[C@H](CSSC[C@H](NC(=O)[C@H](C)N)C(=O)OC)NC(=O)[C@H](C)N [(NAlaC-OMe)2, N,N′-di-L-alanylcystine dimethyl ester] (I: H-Ala-Cys-OMe / II: H-Ala-Cys-OMe; disulfide I:2-II:2) |  | induction of oxidative macrophages was confirmed | confirmed |  |  | Ratio in % of joint swelling in experimental groups to joint swelling in control group ([4]; intravenous): 45%; Frequency (%) of onset of diabetes mellitus ([5]; route not given, judged on week 22, saline 67): 11%
4 | CC(=O)N[C@@H](CSSC[C@H](NC(C)=O)C(=O)OCCCCO[N+](=O)[O-])C(=O)O [N,N′-diacetylcystine nitroxybutyl ester] |  | induction of oxidative macrophages was confirmed | confirmed |  |  | 
5 | CC(=O)N[C@@H](CS)C(=O)OCCCCO[N+](=O)[O-] [N-acetylcysteine nitroxybutyl ester] | same action is also observed |  |  | same action was also observed | same action is also observed | 
6 | CCOC(=O)CNC(=O)[C@H](CS)NC(=O)CC[C@H](N)C(=O)OCC [glutathione diethyl ester] | same action is also observed |  |  | same action was also observed | same action is also observed | Ratio in % of joint swelling in experimental groups to joint swelling in control group ([4]; intraperitoneal, 100 mg/kg): 132%; Frequency (%) of onset of diabetes mellitus ([6]; intraperitoneal): 0%; Frequency (%) of onset of diabetes mellitus ([6]; oral): 0%; Frequency (%) of onset of diabetes mellitus [5, 10]: 67%; Relative ratio % of blood sugar level, 6 weeks [7]: 82%; Relative ratio % of blood sugar level, 7 weeks [7]: 62%; Relative ratio % of blood sugar level, 8 weeks [7]: 60%
7 | COC(=O)C(N)CCC(=O)NC(CS)C(=O)OC (stereo not shown) [γ-glutamylcysteine dimethyl ester] | same action is also observed |  |  | same action was also observed |  | Ratio in % of joint swelling in experimental groups to joint swelling in control group ([4]; intraperitoneal, 100 mg/kg): 120%; Frequency (%) of onset of diabetes mellitus ([6]; intraperitoneal): 10%; Frequency (%) of onset of diabetes mellitus ([6]; oral): 20%; Frequency (%) of onset of diabetes mellitus [5, 10]: 55%; Relative ratio % of blood sugar level, 6 weeks [7]: 85%; Relative ratio % of blood sugar level, 7 weeks [7]: 65%; Relative ratio % of blood sugar level, 8 weeks [7]: 60%
8 | glutathione nitroxybutyl ester | same action is also observed |  |  | same action was also observed | same action is also observed | 

— patent publication US7378387B2, “Method of suppressing immune response by reducing intracellular content of glutathione in macrophages and monocytes” (Ajinomoto Co., Inc., priority 1997, dated 2008)
